Publication PMC12189671, “Antioxidant Activity and Cytotoxicity Evaluation of New Catechol Hydrazinyl-Thiazole Derivatives as Potential Protectors in Retinal Degenerative Processes” (Antioxidants, 2025)
One block for each compound: values may come before it.

Experiments:
[1] = DPPH radical scavenging assay; conditions: 30 min incubation, λ = 517 nm
Protocol: The DPPH^• radical scavenging assay is based on transferring a hydrogen atom from the tested compounds to the violet stable free radical DPPH^• (2,2-diphenyl-1-picrylhydrazyl radical), converting it into a yellow compound. The assay was conducted using tested compounds and references in concentrations ranging from 2 to 50 µM, according to our adaptation of the protocol of Brand-Williams et al.. The absorbance of the samples is given by the remaining unreacted reagent radical, and it is inversely proportional to the amount of DPPH^• neutralized. The absorbance of the samples was measured at λ = 517 nm after 30 min of incubation in the dark at room temperature. The DPPH^• radical scavenging activity of the compounds was calculated using Equation (1):(1) DPPH^• scavenging (%)=control absorbance−sample absorbance/control absorbance×100

[2] = Indirect 1O2 scavenging assay (ICG photo-generator, DPBF probe)
Protocol: The ^1O2 scavenging assay was employed using a previously established indirect protocol from our research group. In brief, indocyanine green (ICG), from Sigma–Aldrich (St. Louis, MO, USA), was utilized to induce ^1O2 production in the presence of 5a and 5b. Ascorbic acid was used as a reference antioxidant agent, and a blank sample without ^1O2 scavengers was prepared. The reaction mixtures were exposed to a Micro Raman System R-3000 (Photonitech, Singapore, Singapore) laser diode,(λ = 785 nm, 190 mW power) for a total time of 100 s. To evaluate the ^1O2 scavenging activity of the compounds 5a,b, the degradation of 1,3-diphenylisobenzofuran (DPBF), obtained from Alfa Aesar (Haverhill, MA, USA), was measured using a V-730 spectrophotometer (Jasco International Co., Ltd., Tokyo, Japan). To determine the ^1O2 quantum yields (Φ(^1O2)) of ICG in the presence of the studied molecules, the following equation was used: Φ(^1O2) = Φ(^1O2) ^ICG × ((S × F^ICG)/(S^ICG × F)), where S represents the slope of the absorbance difference of DPBF over time, F is the absorption correction factor (F = 1 − 10^−OD), and OD is the optical density at the excitation wavelength, λ = 785 nm. The Φ(^1O2) equal to 15.0% of free ICG was used as a reference. The concentrations utilized in the experiment were 0.1 mM for DPBF and 10^−5 M for ICG and the ^1O2 scavengers. Free DPBF was used as a control.
The efficacy of compounds 5a,b against ^1O2 was assessed using an indirect approach. ICG was used as a photo-induced ^1O2 generator alongside DPBF, serving as an indirect chemical probe capable of characterizing ^1O2 release in solution. This setup allowed us to evaluate the ^1O2 scavenging capacity of the tested molecules and compare their activity to a reference compound, specifically ascorbic acid. The samples were exposed to 785 nm laser radiation, and at 10-s intervals after irradiation, their UV-Vis absorption spectra were measured and analyzed (Figure 9). Subsequently, we determined the ^1O2 quantum yields (Φ(^1O2)) of ICG in the presence of 5a,b and ascorbic acid, using the Φ(^1O2) of free ICG of 15.0% as reference.

[3] = Ferrous ions chelation assay (ferrozine)
Protocol: Solutions of the tested compounds or ethylenediaminetetraacetic acid disodium salt (EDTA-Na2), used as a positive control, were thoroughly mixed with 0.5 mL of FeSO4 (0.125 mM) and 0.5 mL of ferrozine (0.315 mM). After a 10-min incubation in the dark at room temperature, the absorbance was measured at λ = 562 nm.

[4] = set-up: method as in PMID 30881661; conditions: free ICG, used as reference; cited from earlier work
[5] = ABTS radical cation decolorization assay; conditions: 10 min incubation, pH 7.4, λ = 734 nm
Protocol: The ABTS^•+ (2,2′-azinobis-(3-ethylbenzothiazoline-6-sulfonic acid) decolorization assay, based on the method of Re et al., was performed in the concentration range of 1 to 25 µM according to protocols previously reported by our group. The reagent was prepared in a 0.1 M potassium phosphate buffer (pH 7.4) and activated overnight with MnO2 [89]. Prior to use, the stability of the ABTS^•+ reagent was verified by checking its absorbance at λ = 734 nm over one hour, ensuring a consistent absorption of around 0.7. The mixtures were incubated for 10 min in the dark at room temperature. The absorbance of the samples is given by the remaining unreacted reagent radical, and it is inversely proportional to the amount of ABTS^•+ neutralized. The ABTS^•+ scavenging activity of compounds was calculated using Equation (2).(2) ABTS^•^+ scavenging (%)=control absorbance−sample absorbance/control absorbance×100

[6] = test system: rat microsomal membrane lipid peroxidation; experiment: Lipid peroxidation inhibition assay (LPI), 2-thiobarbituric acid method; assay type: biochemical; conditions: ascorbic acid/Fe^2+ system, 37 °C, 45 min
Protocol: Rat liver microsomes were homogenized in saline, and the resulting homogenates were centrifuged at 9000× g for 20 min at 4 °C to remove cell debris. The supernatant underwent ultracentrifugation at 110,000× g for 40 min at 4 °C. The pelleted microsomal fraction was subsequently washed with saline via another round of ultracentrifugation under identical conditions. Thereafter, the pellet was resuspended in Tris-HCl buffer (pH 7.4) to achieve a concentration equivalent to 0.5 g liver per mL and was stored until further analysis (at −80 °C). For the assay, the microsomal preparation was thermally inactivated by incubation at 90 °C for 90 s, then homogenized again and diluted to a final concentration equivalent to 4 mM fatty acid equivalents. […] All mixtures were incubated at 37 °C under air with continuous shaking. […] This was followed by heating at 90 °C for 20 min and centrifugation at 3000 rpm for 15 min. As a result of the breakdown of unsaturated fatty acids, malondialdehyde reacts with the 2-thiobarbituric acid to produce a pink compound due to the formation of a Schiff base. The extent of lipid peroxidation was measured spectrophotometrically at 535/600 nm, which is proportional to the amount of the chromogen reaction product formed between 2-thiobarbituric acid and malondialdehyde. The determinations were performed in triplicate, and the standard deviation was within ±10% of the mean value.

OR51E2 = test system: OR51E2; set-up: method as in PMID 29249973; conditions: RPE cells; cited from earlier work

- IC50 [1]: 50.2 µM
Compound: O=C1O[C@H]([C@@H](O)CO)C(O)=C1O [Ascorbic acid, ascorbic acid, reference compound]
- ^1O2 quantum yield Φ(^1O2) of ICG in the presence of the scavenger ([2]; 10^−5 M ICG and scavenger, 785 nm laser, 100 s): 9.4%
- reduction of ^1O2 quantum yield of ICG compared to ICG alone ([2]; addition of scavenger to ICG): 5.6%

Compound: O=C([O-])CN(CCN(CC(=O)O)CC(=O)O)CC(=O)[O-].[Na+].[Na+] [EDTA-Na2, ethylenediaminetetraacetic acid disodium salt, reference compound]
- % of ferrous ions chelation ([3]; 50 nM): 11.71%
- % of ferrous ions chelation ([3]; 100 nM): 20.00%
- % of ferrous ions chelation ([3]; 150 nM): 36.37%
- % of ferrous ions chelation ([3]; 175 nM): 61.98%
- % of ferrous ions chelation ([3]; 200 nM): 86.53%

Compound: CC1(C)C(/C=C/C=C/C=C/C=C2\N(CCCCS(=O)(=O)O)c3ccc4ccccc4c3C2(C)C)=[N+](CCCCS(=O)(=O)[O-])c2ccc3ccccc3c21 [ICG, indocyanine green]
- ^1O2 quantum yield Φ(^1O2) of ICG alone [4]: 15%

- IC50 [1]: 35.8 µM
- IC50 [5]: 15.9 µM
- IC50 [6]: 25 µM
Compound: Cc1c(C)c2c(c(C)c1O)CCC(C)(C(=O)O)O2 (stereo not shown) [Trolox, reference compound]

Compound: CC(=O)/C=C/C1=C(C)CCCC1(C)C [β-ionone]
- threshold concentration to trigger a cellular response (OR51E2): under 10 µM
